Results from ChEMBL document CHEMBL1146296, “Influence of an additional 2-amino substituent of the 1-aminoethyl pharmacophore group on the potency of rimantadine against influenza virus A” (Bioorg Med Chem Lett, 2007).
Activity calls are given as the source filed them. The calls are words filed in the database; no cut-off is given here.

Columns and labels:
MDCK = experiment: Cytotoxicity against MDCK cells; type: cell-based, Canis lupus familiaris; details: dog
Influenza A virus [1] = experiment: Antiviral activity against influenza A virus (H3N2)-induced cytopathogenicity in MDCK cells by MTS method; type: functional, organism-based
Influenza A virus [2] = experiment: Antiviral activity against influenza A virus (H3N2) assessed as inhibition of viral replication; type: functional, organism-based
Influenza B virus = experiment: Antiviral activity against influenza B virus; type: functional, organism-based

| Structure (SMILES) | MTC (MDCK) | EC50 (Influenza A virus [1]) | Activity (Influenza A virus [2]) | Activity (Influenza B virus) |
| --- | --- | --- | --- | --- |
| C1CNC(C23CC4CC(CC(C4)C2)C3)C1.Cl (stereo not drawn) | 1035 µM | 51.3 µM | – | – |
| C1CNC(C23CC4CC(CC(C4)C2)C3)CN1.O=C(O)/C=C\C(=O)O (stereo not drawn) | > 553 µM | 24.1 µM | Active | inactive |
| CN1CCN(C)C(C23CC4CC(CC(C4)C2)C3)C1.O=C(O)/C=C\C(=O)O (stereo not drawn) | > 520 µM | 351 µM | – | inactive |
| CN1C(=O)NCC1C12CC3CC(CC(C3)C1)C2 (stereo not drawn) | > 1067 µM | 269 µM | – | inactive |
| NCC(N)C12CC3CC(CC(C3)C1)C2.O=C(O)/C=C\C(=O)O (stereo not drawn) | > 586 µM | 18.3 µM | Active | inactive |
| CN1CC(C23CC4CC(CC(C4)C2)C3)N(C)C1=O (stereo not drawn) | 1007 µM | 107 µM | – | inactive |
| O=C1NCC(C23CC4CC(CC(C4)C2)C3)N1 (stereo not drawn) | > 1135 µM | 72.6 µM | Active | inactive |
| CN1CCNCC1C12CC3CC(CC(C3)C1)C2.O=C(O)/C=C\C(=O)O (stereo not drawn) | > 535 µM | 197 µM | – | inactive |
| O=C1CNC(C23CC4CC(CC(C4)C2)C3)CN1 (stereo not drawn) | > 1067 µM | 91.8 µM | Active | inactive |
| CN1CC(=O)NCC1C12CC3CC(CC(C3)C1)C2 (stereo not drawn) | > 1007 µM | 604 µM | – | inactive |
| C1CCC(C23CC4CC(CC(C4)C2)C3)NC1.Cl (stereo not drawn) | 978 µM | 70.5 µM | – | – |
| CC(N)C12CC3CC(CC(C3)C1)C2.Cl (stereo not drawn) [RIMANTADINE HYDROCHLORIDE] | > 1160 µM | 19.1 µM | – | – |
| Cl.NC12CC3CC(CC(C3)C1)C2 [AMANTADINE HYDROCHLORIDE] | > 1333 µM | 49.1 µM | – | – |
| CNC(CN)C12CC3CC(CC(C3)C1)C2.O=C(O)/C=C\C(=O)O (stereo not drawn) | > 568 µM | 56.8 µM | Active | inactive |
